In brackets after ≈: the same amount, converted by molar mass. Activity calls are given as the source filed them. The calls are words filed in the database; no cut-off is given here.
Experiments:
[1] = molecular target: Protein cereblon/Tyrosine-protein kinase Lck (Homo sapiens, UniProt P06239+Q96SW2); assay: PROTAC activity at HiBit-tagged LCK/CRBN in human KOPT-K1 cells assessed as induction of LCK degradation incubated for 6 hrs by Nano-Glo HiBiT assay relative to control; type: cell-based
[2] = Aqueous solubility of the compound incubated for 18 hrs by UPLC-SQDMS; type: physicochemical; conditions: buffer
[3] = Metabolic stability in mouse liver microsomes assessed as half life in presence of NADPH by UPLC-MS/MS analysis; type: ADME, Microsome
[4] = Apparent permeability of compound across apical to basolateral side in human Caco-2 cells; type: ADME, cell-based
[5] = Drug concentration in CD-1 mouse plasma at 30 mg/kg, po measured after 4 hrs by UPLC-MS/MS analysis; type: ADME, organism-based
[6] = Stability in CD-1 mouse plasma assessed as half life; type: ADME, cell-free
[7] = Apparent permeability of compound across basolateral to apical side in human Caco-2 cells; type: ADME, cell-based
[8] = Efflux ratio of apparent permeability across basolateral to apical over apical to basolateral in human Caco-2 cells; type: ADME, cell-based
KOPTK1 [9] = assay: Antiproliferative activity against human KOPT-K1 cells assessed as inhibition of cell growth at 100 nM measured for 18 hrs by celltiter glo assay; type: functional, cell-based
KOPTK1 [10] = assay: Downregulation of CISH in human KOPT-K1 cells measured for 6 hrs by tandem mass tag proteomic assay; type: functional, cell-based
KOPTK1 [11] = assay: Downregulation of CSK in human KOPT-K1 cells measured for 6 hrs by tandem mass tag proteomic assay; type: functional, cell-based
KOPTK1 [12] = assay: Downregulation of EPHB1 in human KOPT-K1 cells measured for 6 hrs by tandem mass tag proteomic assay; type: functional, cell-based
KOPTK1 [13] = assay: Antiproliferative activity against human KOPT-K1 cells assessed as inhibition of cell growth at 100 nM measured for 160 hrs by celltiter glo assay; type: functional, cell-based

Protein cereblon/Tyrosine-protein kinase Lck, sequence (P06239 2-509 limits assumed): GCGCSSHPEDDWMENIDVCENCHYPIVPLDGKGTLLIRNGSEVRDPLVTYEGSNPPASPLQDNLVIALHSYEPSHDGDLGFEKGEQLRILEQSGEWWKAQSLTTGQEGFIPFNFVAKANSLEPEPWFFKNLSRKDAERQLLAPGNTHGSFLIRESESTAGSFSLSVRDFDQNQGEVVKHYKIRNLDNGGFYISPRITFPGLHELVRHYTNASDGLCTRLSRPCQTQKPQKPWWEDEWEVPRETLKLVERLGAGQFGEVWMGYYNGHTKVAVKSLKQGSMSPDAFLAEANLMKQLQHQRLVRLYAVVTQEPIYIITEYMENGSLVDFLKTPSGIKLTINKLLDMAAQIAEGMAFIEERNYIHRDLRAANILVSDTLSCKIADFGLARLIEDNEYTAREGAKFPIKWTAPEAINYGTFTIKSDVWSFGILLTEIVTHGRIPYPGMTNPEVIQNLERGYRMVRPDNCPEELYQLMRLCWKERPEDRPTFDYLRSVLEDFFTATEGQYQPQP
Protein cereblon/Tyrosine-protein kinase Lck, sequence (Q96SW2 whole entry partner): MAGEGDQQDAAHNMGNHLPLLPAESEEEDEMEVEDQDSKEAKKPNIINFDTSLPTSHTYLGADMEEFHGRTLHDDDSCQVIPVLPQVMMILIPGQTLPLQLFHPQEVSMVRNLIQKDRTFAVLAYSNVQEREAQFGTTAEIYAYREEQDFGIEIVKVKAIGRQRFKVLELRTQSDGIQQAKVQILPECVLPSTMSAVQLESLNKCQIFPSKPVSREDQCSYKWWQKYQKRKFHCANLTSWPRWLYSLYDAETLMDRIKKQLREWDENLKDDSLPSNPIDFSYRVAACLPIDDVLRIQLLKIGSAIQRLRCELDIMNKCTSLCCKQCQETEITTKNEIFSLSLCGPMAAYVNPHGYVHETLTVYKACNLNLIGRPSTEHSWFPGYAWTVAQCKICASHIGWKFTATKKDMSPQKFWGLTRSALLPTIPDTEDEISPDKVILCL

Structure (SMILES)	Emax [1] [%]	solubility at 18 h [2] [µM]	half-life [3] [h]	Papp A→B [4] [×10⁻⁶ cm/s]	concentration at 4 h [5] [ng/mL]	half-life [6] [h]	Papp B→A [7] [×10⁻⁶ cm/s]	other results
Cc1nc(Nc2ncc(C(=O)Nc3c(C)cccc3Cl)s2)cc(N2CCN(CCCC(=O)N3CC4CC3CN4c3ccc(C4CCC(=O)NC4=O)cc3)CC2)n1 (centres undefined)	90	0.19 (≈ 0.152 µg/mL)	0.32					
Cc1nc(Nc2ncc(C(=O)Nc3c(C)cccc3Cl)s2)cc(N2CCC(N(C)C3CCN(c4ccc(C5CCC(=O)NC5=O)cc4)CC3)CC2)n1 (centres undefined)	< 60		2.1	1.93	207	3.84	12.7	efflux ratio [8]: 6.56
Cc1nc(Nc2ncc(C(=O)Nc3c(C)cccc3Cl)s2)cc(N2CCN(CCCC(=O)N3CCC4(CC3)CCN(c3ccc(C5CCC(=O)NC5=O)cc3)CC4)CC2)n1 (centres undefined)	86	1.5 (≈ 1.28 µg/mL)	1.2					
Cc1nc(Nc2ncc(C(=O)Nc3c(C)cccc3Cl)s2)cc(N2CCN(C(=O)CCCN3CC4CC3CN4c3ccc(C4CCC(=O)NC4=O)cc3)CC2)n1 (centres undefined)	88	15.2 (≈ 12.1 µg/mL)	0.54	1.32	1.19	4.25	1.55	
Cc1nc(Nc2ncc(C(=O)Nc3c(C)cccc3Cl)s2)cc(N2CCN(CCO)CC2)n1								Activity (KOPTK1 [9]): Active; Activity (KOPTK1 [10]): Active; Activity (KOPTK1 [11]): Active; Activity (KOPTK1 [12]): Active; Activity (KOPTK1 [13]): inactive

Continued, in another order:

Emax [1] [%]	solubility at 18 h [2] [µM]	half-life [3] [h]	Papp A→B [4] [×10⁻⁶ cm/s]	concentration at 4 h [5] [ng/mL]	half-life [6] [h]	Papp B→A [7] [×10⁻⁶ cm/s]	Structure (SMILES)	other results
< 60	1.99 (≈ 1.28 µg/mL)	1.23					Cc1nc(Nc2ncc(C(=O)Nc3c(C)cccc3Cl)s2)cc(N2CCN(Cc3ccc(C4CCC(=O)NC4=O)cc3)CC2)n1 (centres undefined)	
87	2.57 (≈ 1.94 µg/mL)	10	1.04	54	4.98	9.82	Cc1nc(Nc2ncc(C(=O)Nc3c(C)cccc3Cl)s2)cc(N2CCN(CCCN3CCC(c4ccc(C5CCC(=O)NC5=O)cc4)CC3)CC2)n1 (centres undefined)	
< 60		3.5					Cc1nc(Nc2ncc(C(=O)Nc3c(C)cccc3Cl)s2)cc(N2CCN(CC3CCN(c4ccc(C5CCC(=O)NC5=O)cc4)CC3)CC2)n1 (centres undefined)	
< 60		2.2					Cc1nc(Nc2ncc(C(=O)Nc3c(C)cccc3Cl)s2)cc(N2CCC3(CCN(c4ccc(C5CCC(=O)NC5=O)cc4)CC3)CC2)n1 (centres undefined)	
